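Where inhibition never reached the appropriate level, the endpoint shown equals the highest concentration tested. Otherwise, values were interpolated linearly from a five-concentration, 48-hour dose response in 96-well plates. At the TGI there is no net growth.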
Key:
Assay in all cases: inhibition of tumour cell growth, NCI panel, 48 h
[1] = test system: 786-0 renal
[2] = test system: A549 NSCLC
[3] = test system: ACHN renal
[4] = test system: CCRF-CEM leukemia
[5] = test system: COLO 205 colon
[6] = test system: DLD-1 colon
[7] = test system: DMS 114 small cell lung
[8] = test system: DMS 273 small cell lung
[9] = test system: EKVX NSCLC
[10] = test system: HCC-2998 colon
[11] = test system: HCT-116 colon
[12] = test system: HCT-15 colon
[13] = test system: HL-60(TB) leukemia
[14] = test system: HOP-62 NSCLC
[15] = test system: HOP-92 NSCLC
[16] = test system: HT29 colon
[17] = test system: IGROV1 ovarian
[18] = test system: K-562 leukemia
[19] = test system: KM12 colon
[20] = test system: KM20L2 colon
[21] = test system: LXFL 529 NSCLC
[22] = test system: M14 melanoma
[23] = test system: M19-MEL melanoma
[24] = test system: MALME-3M melanoma
[25] = test system: MOLT-4 leukemia
[26] = test system: NCI-H23 lung
[27] = test system: NCI-H460 lung
[28] = test system: NCI-H522 lung
[29] = test system: OVCAR-3 ovarian
[30] = test system: OVCAR-4 ovarian
[31] = test system: OVCAR-5 ovarian
[32] = test system: OVCAR-8 ovarian
[33] = test system: RPMI-8226 leukemia
[34] = test system: RXF 393 renal
[35] = test system: RXF-631 renal
[36] = test system: SF-268 CNS
[37] = test system: SF-295 CNS
[38] = test system: SF-539 CNS
[39] = test system: SK-MEL-2 melanoma
[40] = test system: SK-MEL-28 melanoma
[41] = test system: SK-MEL-5 melanoma
[42] = test system: SN12C renal
[43] = test system: SNB-19 CNS
[44] = test system: SNB-75 CNS
[45] = test system: SNB-78 CNS
[46] = test system: SW-620 colon
[47] = test system: U251 CNS
[48] = test system: UACC-257 melanoma
[49] = test system: UACC-62 melanoma
[50] = test system: UO-31 renal
[51] = test system: XF 498 CNS

Measured: TGI

c1ccc2c(c1)Cc1c(Cc3csc4ccccc34)ccc3cccc-2c13
> 100 µM: all assays above

Reference: PubChem BioAssay (NCI)
